From ChEMBL document CHEMBL1139228, “Saliniketals A and B, bicyclic polyketides from the marine actinomycete Salinispora arenicola” (J Nat Prod, 2007)
The source made the active and inactive calls. The calls are words filed in the database; no cut-off is given here.

How the values were obtained:
[1] = Inhibition of DNA dependent RNA polymerase in prokaryotes
[2] = target: T1, Ornithine decarboxylase (Homo sapiens) (UniProt P11926); test: Inhibition of ornithine decarboxylase induction expressed in T24 cells; type: cell-based; conditions: T-24
T1 sequence (whole entry): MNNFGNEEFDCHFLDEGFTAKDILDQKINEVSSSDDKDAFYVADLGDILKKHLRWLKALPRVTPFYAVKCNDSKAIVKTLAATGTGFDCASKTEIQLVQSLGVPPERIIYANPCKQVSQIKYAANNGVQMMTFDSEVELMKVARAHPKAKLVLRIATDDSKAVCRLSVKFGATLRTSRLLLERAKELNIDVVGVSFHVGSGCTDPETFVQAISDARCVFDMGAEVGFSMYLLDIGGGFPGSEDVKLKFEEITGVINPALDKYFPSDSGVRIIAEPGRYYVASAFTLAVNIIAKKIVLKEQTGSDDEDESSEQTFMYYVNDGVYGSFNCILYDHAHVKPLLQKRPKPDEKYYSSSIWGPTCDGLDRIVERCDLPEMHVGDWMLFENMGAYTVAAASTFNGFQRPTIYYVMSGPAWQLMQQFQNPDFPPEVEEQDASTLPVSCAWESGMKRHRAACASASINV

[3] = target: T1, Ornithine decarboxylase (Homo sapiens); test: Inhibition of ornithine decarboxylase upto 1 mM

Row | Structure (SMILES) | Activity [1] | Activity [2] | Activity [3]
1 | CO[C@H]1/C=C/O[C@@]2(C)Oc3c(C)c(O)c4c(O)c(cc(O)c4c3C2=O)NC(=O)/C(C)=C\C=C\[C@H](C)[C@H](O)[C@@H](C)[C@@H](O)[C@@H](C)[C@H](OC(C)=O)[C@@H]1C | Active | – | –
2 | C[C@H]([C@H](O)[C@H](C)[C@@H](O)[C@@H](C)/C=C/C=C(/CO)C(N)=O)[C@@H]1O[C@@]2(C)CC[C@@H](O2)[C@H]1C | – | inactive | inactive
3 | C/C(=C/C=C/[C@H](C)[C@H](O)[C@@H](C)[C@@H](O)[C@@H](C)[C@@H]1O[C@@]2(C)CC[C@@H](O2)[C@H]1C)C(N)=O | – | inactive | inactive
